Where “and” joins values, the source holds several entries; their conditions need not be identical. Equal entries are not always repeated. Toxic doses and inconclusive results are not listed. No stated cut-off is given here; in the data, active means T/C of 150% or more; inactive means T/C below 125%.
Test system: L1210 leukemia ip in BDF1 mice, survival T/C
Assay: NCI In Vivo Anticancer Drug Screen. Data for tumor model L1210 Leukemia (intraperitoneal) in B6D2F1 (BDF1) mice
Conditions: endpoint: mean survival time, higher = longer survival
Method in brief: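 Each compound was tested against a transplantable tumor grown in mice. The endpoint was survival, with treated animals benchmarked against vehicle controls as a simple ratio.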

[1] = dose: 100.0 mg/kg/injection, schedule: Q01DX009 (ip), vehicle: other
[2] = dose: 200.0 mg/kg/injection, schedule: Q01DX009 (ip), vehicle: other
[3] = dose: 400.0 mg/kg/injection, schedule: Q01DX009 (ip), vehicle: other
[4] = dose: 100.0 mg/kg/injection, schedule: Q01DX001 (ip), vehicle: saline
[5] = dose: 200.0 mg/kg/injection, schedule: Q01DX001 (ip), vehicle: saline

Measured: T/C

CCOC(=O)C(O)C(C#N)c1ccccc1 (stereo not drawn)
inactive: [1] 94 % of control | dose: 100.0 mg/kg/injection, schedule: Q04DX003 (ip), vehicle: other 118 % of control | [2] 106 % of control | dose: 200.0 mg/kg/injection, schedule: Q04DX003 (ip), vehicle: other 101 % of control | [3] 95 % of control | dose: 400.0 mg/kg/injection, schedule: Q04DX003 (ip), vehicle: other 105 % of control

CNC(=O)Oc1ccc2ccccc2c1
inactive: [1] 101 % of control | [2] 104 % of control | [3] 93 % of control

CCCCc1nc2c(c(=O)n(C)c(=O)n2C)n1C
inactive: dose: 50.0 mg/kg/injection, schedule: Q01DX001 (ip), vehicle: saline 96 % of control | [4] 96 % of control | [5] 102 % of control

O=C(Cl)C1C(c2ccccc2)C1c1ccccc1 (stereo not drawn)
inactive: dose: 100.0 mg/kg/injection, schedule: Q04DX003 (ip), vehicle: saline with Tween-80 106 % of control

c1ccc(NC2=NCCCN2)cc1
inactive: dose: 12.5 mg/kg/injection, schedule: Q01DX001 (ip), vehicle: saline with Tween-80 102 % of control | dose: 25.0 mg/kg/injection, schedule: Q01DX001 (ip), vehicle: saline with Tween-80 97 % of control | dose: 50.0 mg/kg/injection, schedule: Q01DX001 (ip), vehicle: saline with Tween-80 91 % of control

C/C(=N/Nc1ccc2c(O)cc(S(=O)(=O)O)cc2c1)c1ccc(Cl)cc1
inactive: dose: 75.0 mg/kg/injection, schedule: Q01DX009 (ip), vehicle: saline 101 % of control | dose: 150.0 mg/kg/injection, schedule: Q01DX009 (ip), vehicle: saline 98 % of control | dose: 300.0 mg/kg/injection, schedule: Q01DX009 (ip), vehicle: saline 96 % of control

CC(=O)c1ccc(NC(N)=S)cc1
inactive: dose: 5.0 mg/kg/injection, schedule: Q01DX009 (ip), vehicle: saline with Tween-80 88 % of control | dose: 10.0 mg/kg/injection, schedule: Q01DX009 (ip), vehicle: saline with Tween-80 98 % of control | dose: 20.0 mg/kg/injection, schedule: Q01DX009 (ip), vehicle: saline with Tween-80 103 % of control and 90 % of control | dose: 40.0 mg/kg/injection, schedule: Q01DX009 (ip), vehicle: saline with Tween-80 97 % of control and 104 % of control | dose: 80.0 mg/kg/injection, schedule: Q01DX009 (ip), vehicle: saline with Tween-80 91 % of control

C[N+]1(C)CCN(c2ccccc2)CC1
inactive: dose: 9.38 mg/kg/injection, schedule: Q01DX001 (ip), vehicle: saline 108 % of control | dose: 18.75 mg/kg/injection, schedule: Q01DX001 (ip), vehicle: saline 105 % of control

O=S1(=O)C(Cl)c2ccccc2-c2ccccc2C1Cl (stereo not drawn)
inactive: dose: 25.0 mg/kg/injection, schedule: Q04DX002 (ip), vehicle: gum acacia 89 % of control | dose: 50.0 mg/kg/injection, schedule: Q04DX002 (ip), vehicle: gum acacia 89 % of control | dose: 100.0 mg/kg/injection, schedule: Q04DX002 (ip), vehicle: gum acacia 93 % of control

C=Nc1ccc(Cl)cc1
inactive: dose: 50.0 mg/kg/injection, schedule: Q01DX001 (ip), vehicle: carboxymethylcellulose (CMC) 98 % of control | dose: 100.0 mg/kg/injection, schedule: Q01DX001 (ip), vehicle: carboxymethylcellulose (CMC) 93 % of control | dose: 200.0 mg/kg/injection, schedule: Q01DX001 (ip), vehicle: carboxymethylcellulose (CMC) 98 % of control

O=[N+]([O-])c1ccc(C=Nc2ccc([N+](=O)[O-])cc2)cc1
inactive: dose: 100.0 mg/kg/injection, schedule: Q04DX003 (ip), vehicle: saline 90 % of control | dose: 200.0 mg/kg/injection, schedule: Q04DX003 (ip), vehicle: saline 86 % of control | dose: 400.0 mg/kg/injection, schedule: Q04DX003 (ip), vehicle: saline 93 % of control

NC(N)=NC(N)=NCCc1ccccc1
inactive: [4] 94 % of control | [5] 94 % of control

O=C(O)COc1ccc([N+](=O)[O-])cc1F
inactive: dose: 100.0 mg/kg/injection, schedule: Q04DX002 (ip), vehicle: other 102 % of control | dose: 200.0 mg/kg/injection, schedule: Q04DX002 (ip), vehicle: other 88 % of control | dose: 400.0 mg/kg/injection, schedule: Q04DX002 (ip), vehicle: other 91 % of control

CCOC(=O)N/N=C/c1ccc([N+](=O)[O-])cc1
inactive: [4] 94 % of control | [5] 98 % of control | dose: 400.0 mg/kg/injection, schedule: Q01DX001 (ip), vehicle: saline 102 % of control

Source: PubChem BioAssay AID248 (DTP/NCI, 2004)
